Reference: patent publication US5719287A, “Intermediates for inhibitors of HIV protease and method of preparation thereof” (Eli Lilly and Company, priority 1995, dated 1998)

Molecular target: T1, HIV-1 protease (Human immunodeficiency virus type 1 group M subtype B, UniProt P04585)
T1 construct: Purified HIV-1 protease was obtained as described below; made in house; host or cells: E. coli K12 L507/pHP10D (NRRL B-18560)
Assay: biochemical
Conditions: purified HIV-1 protease, MES-ALB buffer pH 5.5; 1 h preincubation, 16 h with substrate, room temperature; IC50 values for Examples 2-70 are standardized relative to Ex 1
Experimental: N^α -Biotin-[…]Ne-FITC)-OH
The purified peptide was labeled as follows with a fluorescent marker at the C-terminal end for use in the assay. N^α -Biotin-Gly-Ser-Gln-Asn-Tyr-Pro-lle-Val-Gly-Lys-OH (1.206 g, 0.936 mmoles) was dissolved in 100 mL of 0.1M sodium borate, pH 9.5 with stirring. Then, 3 g of fluorescein isothiocyanate (7.7 mmol) was dissolved in 15 mL dimethyl sulfoxide and the solution added to the reaction in 10 equal portions over the course of a two hour period. The reaction was allowed to proceed for a further one hour after the final addition had been made. The pH of the solution was adjusted to 3 with 5N HCl. A precipitate formed which was removed from the reaction by centrifugation.
Fluorescence HIV-1 Protease Inhibitor Assay Procedure.
To each well of a round bottom, 96-well plate is added 20 μl of the Enzyme Solution followed by 10 μl of the compound to be evaluated in 20% aqueous DMSO. Purified HIV-1 protease was obtained as described below. The solution is incubated for one hour at room temperature and then 20 μl of a solution of the substrate N^α -Biotin-[…]N^e -FITC)-OH, in MES-ALB buffer (1.5 μl/ml) is added to each well. The solutions are incubated for 16 hours at room temperature and thereafter to each well is added 150 μl of MES-ALB buffer.
To each well of a 96-well Pandex plate is added 25 μl of the Avidin Coated Beads Solution. Next, 25 μl of the diluted incubation solutions, described above, are added to each well of the Pandex plate. The solutions are mixed well and the plates are loaded into a Pandex® machine, washed, evacuated and read. Sample detection was performed by excitation at 485 nm and reading the resulting epifluorescence at 535 nm.
A culture of E. coli K12 L507/pHP10D was grown to mid-log phase at 32° C. in LB media containing 12.5 μg/ml tetracycline. The cultivation temperature was quickly elevated to 40° C. to induce gene expression, and the cells were allowed to grow for 2.5 hours at this temperature before the culture was quickly chilled on ice. The cells were centrifuged and the cell pellet was resuspended in 20 ml 50 mmol MES buffer (pH 6.0) containing 1 mmol EDTA, 1 mmol DTT, 1 mmol PMSF, and 10% glycerol (Buffer A). Cells were lysed by sonication using a Fischer Model 300 Dismembrator and a microtip probe. […] Enzymatic activity was measured by HPLC using the synthetic peptide SQNYPIV as described in Margolin et al., Biochem. Biophys. Res. Commun., 167, 554-560 (1990); the production of the pl peptide (SQNY) was measured.
Active fractions were pooled, made 1.2M in ammonium sulfate, and applied to a hexyl agarose column (2.0×18 cm) equilibrated in Buffer A containing 1.2M ammonium sulfate. The sample, in 125 ml (1.85 mg/ml), was loaded at a flow rate of 1 ml/min at 4° C. […] The column was then washed isocratically in Buffer A for 120 min. Active fractions were pooled, concentrated to 10 ml using an Amicon stirred cell with a YM-10 membrane, and applied at 1 ml/min to a MonoS cation exchange column (1.0×10 cm) equilibrated in Buffer A. After washing isocratically for 30 min, protease was eluted using a linear gradient of 0-0.45M NaCl in Buffer A over 40 min followed by an isocratic wash with Buffer A containing 0.45M NaCl over 30 min. Chromatography was performed at 25° C.
Pooled active fractions were concentrated to 200 ul using an Amicon stirred cell and a YM-10 membrane, and the protease was then applied to a Superose 6 size exclusion column equilibrated in Buffer A containing 0.1M NaCl. The column was washed isocratically in this buffer at a flow rate of 0.5 ml/min.

SMILES | Fluorescence Assay IC50 [ng/mL]
CC(C)(C)NC(=O)c1ccccc1CC(O)C(Cc1ccccc1)NC(=O)C(CC(N)=O)NC(=O)c1cccc2cccnc12 (stereo not drawn) [Example 61, [1S-(1R*, 4R*, 5S*)]-N-(1-(2-amino-2-oxoethyl)-2-oxo-3-aza-4-phenylmethyl-5-hydroxy-6-(2-(1-t-butylamino-1-oxomethyl)phenyl)hexyl)-8-quinolinyl carboxamide] | 1.3
CC(C)(C)NC(=O)c1ccccc1CC(O)C(Cc1ccccc1)NC(=O)C(CC(N)=O)NC(=O)c1cc(C(C)(C)C)c2ccccc2n1 (stereo not drawn) [Example 66, [1S-(1R*, 4R*, 5S*)]-N-(1-(3-amino-2-oxoethyl)-2-oxo-3-aza-4-phenylmethyl-5-hydroxy-6-(2-(1-t-butylamino-1-oxomethyl)phenyl)hexyl)-4-(2,2-dimethylethyl)quinolin-2-yl carboxamide] | 1.5

Same assay, conditions: purified HIV-1 protease, MES-ALB buffer pH 5.5; 1 h preincubation, 16 h with substrate, room temperature; IC50 values for Examples 2-70 are standardized relative to Ex 1; read-out: Fluorescence Assay IC50 (converted)

SMILES | IC50 [nM]
CC(C)(C)NC(=O)c1ccccc1C[C@@H](O)[C@H](Cc1ccccc1)NC(=O)[C@H](CC(=O)NNc1cccnc1)NC(=O)c1ccc2ccccc2n1 [Example 50, [1S-(1R*, 4R*, 5S*)]-N-(1-(2-(N-(N-3-pyridyl)amino)amino)-2-oxoethyl)-2-oxo-3-aza-4-phenylmethyl-5-hydroxy-6-(2-(1-t-butylamino-1-oxomethyl)phenyl)hexyl)-2-quinolinyl carboxamide] | 0.228
CC(C)(C)NC(=O)c1ccccc1C[C@@H](O)[C@H](Cc1ccccc1)NC(=O)[C@H](CC(N)=O)NC(=O)c1ccc2cc(F)cc(F)c2n1 [Example 59, [1S-(1R*, 4R*, 5S*)]-N-(1-(2-amino-2-oxoethyl)-2-oxo-3-aza-4-phenylmethyl-5-hydroxy-6-(2-(1-t-butylamino-1-oxomethyl)phenyl)hexyl)-6,8-difluoroquinolin-2-yl carboxamide] | 11.2

Same assay, conditions: read-out: Fluorescence Assay IC50 (converted)

SMILES | IC50 [nM]
CC(C)(C)NC(=O)c1ccccc1C[C@@H](O)[C@H](CC1CCCCC1)NC(=O)[C@H](CC(N)=O)NC(=O)c1ccc2ccccc2n1 [Example 51, [1S-(1R*, 4R*. 5S*)]-N-(1-(2-amino-2-oxoethyl)-2-oxo-3-aza-4-cyclohexylmethyl-5-hydroxy-6-(2-(1-t-butylamino-1-oxomethyl)phenyl)hexyl)-2-quinolinyl carboxamide] | 14.9
CC(C)(C)NC(=O)c1ccccc1C[C@@H](O)[C@H](Cc1ccccc1)NC(=O)[C@H](CC(N)=O)NC(=O)c1ccc2cccc(F)c2n1 [Example 52, [1S-(1R*, 4R*, 5S*)]-N-(1-(2-amino-2-oxoethyl)-2-oxo-3-aza-4-phenylmethyl-5-hydroxy-6-(2-(1-t-butylamino-1-oxomethyl)phenyl)hexyl)-8-fluoroquinolin-2-yl carboxamide] | 4.62
CC(C)(C)NC(=O)c1ccccc1C[C@@H](O)[C@H](Cc1ccccc1)NC(=O)[C@H](CC(N)=O)NC(=O)c1cc(Cl)c2ccccc2n1 [Example 53, [1S-(1R*, 4R*, 5S*)]-N-(1-(2-amino-2-oxoethyl)-2-oxo-3-aza-4-phenylmethyl-5-hydroxy-6-(2-(1-t-butylamino-1-oxomethyl)phenyl)hexyl)-4-chloroquinolin-2-yl carboxamide] | 1.2
CC(C)(C)NC(=O)c1ccccc1C[C@@H](O)[C@H](Cc1ccccc1)NC(=O)[C@H](CCC(N)=O)NC(=O)c1ccc2ccccc2n1 [Example 54, [1S-(1R*, 4R*, 5S*)]-N-(1-(3-amino-3-oxopropyl)-2-oxo-3-aza-4-phenylmethyl-5-hydroxy-6-(2-(1-t-butylamino-1-oxomethyl)phenyl)hexyl)-2-quinolinyl carboxamide] | 78.6
CC(C)(C)NC(=O)c1ccccc1C[C@@H](O)[C@H](Cc1ccccc1)NC(=O)[C@H](CC(N)=O)NC(=O)c1ccc2cc(Cl)ccc2n1 [Example 55, [1S-(1R*, 4R*, 5S*)]-N-(1-(2-amino-2-oxoethyl)-2-oxo-3-aza-4-phenylmethyl-5-hydroxy-6-(2-(1-t-butylamino-1-oxomethyl)phenyl)hexyl)-6-chloroquinolin-2-yl carboxamide] | 1.26
CC(C)(C)NC(=O)c1ccccc1C[C@@H](O)[C@H](Cc1ccccc1)NC(=O)[C@H](CCC(N)=O)NC(=O)c1ccc2ccccc2c1 [Example 56, [1S-(1R*, 4R*, 5S*)]-N-(1-(3-amino-3-oxopropyl) -2-oxo-3-aza-4-phenylmethyl-5-hydroxy-6-(2-(1-t-butylamino-1-oxomethyl)phenyl)hexyl)-2-naphthyl carboxamide] | 38.9
CC(C)(C)NC(=O)c1ccccc1C[C@@H](O)[C@H](Cc1ccccc1)NC(=O)[C@H](CC(N)=O)NC(=O)NCc1ccccc1 [Example 57, [2R-(2R*, 3S*, 6S*)]-N-t-butyl-2-(2-hydroxy-3-phenylmethyl-4-aza-5-oxo-6-(2-amino-2-oxoethyl)-7-aza-8-oxo-8-(N-benzylamino)octyl)benzamide] | 16.5
CC(C)(C)NC(=O)c1ccccc1C[C@@H](O)[C@H](Cc1ccccc1)NC(=O)[C@H](CC(N)=O)NC(=O)NCc1cccc2ccccc12 [Example 58, [2R-(2R*, 3S*, 6S*)]-N-t-butyl-2-(2-hydroxy-3-phenylmethyl-4-aza-5-oxo-6-(2-amino-2-oxoethyl)-7-aza-8-oxo-8-(N-naphth-1-ylmethylamino)octyl)benzamide] | 2.82
CC(C)(C)NC(=O)c1ccccc1C[C@@H](O)[C@H](Cc1ccccc1)NC(=O)[C@H](CC(N)=O)NC(=O)c1ccc2cccc(Cl)c2n1 [Example 62, [1S-(1R*, 4R*, 5S*)]-N-(1-(2-amino-2-oxoethyl)-2-oxo-3-aza-4-phenylmethyl-5-hydroxy-6-(2-(1-t-butylamino-1-oxomethyl)phenyl)hexyl)-8-chloroquinolin-2-yl carboxamide] | 5.9
Cc1cc(C)c2ccc(C(=O)N[C@@H](CC(N)=O)C(=O)N[C@@H](Cc3ccccc3)[C@H](O)Cc3ccccc3C(=O)NC(C)(C)C)nc2c1 [Example 63, [1S-(1R*, 4R*, 5S*)]-N-(1-(2-amino-2-oxoethyl)-2-oxo-3-aza-4-phenylmethyl-5-hydroxy-6-(2-(1-t-butylamino-1-oxomethyl)phenyl)hexyl)-5,7-dimethylquinolin-2-yl carboxamide] | 0.784
COc1cc(C(=O)N[C@@H](CC(N)=O)C(=O)N[C@@H](Cc2ccccc2)[C@H](O)Cc2ccccc2C(=O)NC(C)(C)C)nc2ccccc12 [Example 64, [1S-(1R*, 4R*, 5S*) ]-N-(1-(2-amino-2-oxoethyl)-2-oxo-3-aza-4-phenylmethyl-5-hydroxy-6-(2-(1-t-butylamino-1-oxomethyl)phenyl)hexyl)-4-methoxyquinolin-2-yl carboxamide] | 0.782
Cc1ccc(C(=O)NC(C)(C)C)c(C[C@@H](O)[C@H](Cc2ccccc2)NC(=O)[C@H](CC(N)=O)NC(=O)c2ccc3ccccc3n2)c1 [Example 65, [1S-(1R*, 4R*, 5S*)]-N-(1-(2-amino-2-oxoethyl)-2-oxo-3-aza-4-phenylmethyl-5-hydroxy-6-(2-(1-t-butylamino-1-oxomethyl)-5-methylphenyl)hexyl)-2-quinolinyl carboxamide] | 1.92
Cc1ccc(C[C@@H](O)[C@H](Cc2ccccc2)NC(=O)[C@H](Cc2c[nH]cn2)NC(=O)c2ccc3ccccc3n2)c(C(=O)NC(C)(C)C)c1 [Example 67, [1S-(1R*, 4R*, 5S*)]-N-(1-(4-imidazolylmethyl)-2-oxo-3-aza-4-phenylmethyl-5-hydroxy-6-(2-(1-t-butylamino-1-oxomethyl)-4-methylphenyl)-4-hexyl)-2-quinolinyl carboxamide] | 7.73
